From US9233964B2, “Sulfamide piperazine derivatives as protein tyrosine kinase inhibitors and pharmaceutical use therof” (LEO PHARMA A/S, priority 2011, dated 2016)

What was measured:
Format in all cases: biochemical
JAK2 = biological target: T1, JAK2 (Homo sapiens, UniProt O60674); assay: JAK kinase assay (HTRF, phosphorylation of synthetic peptide), JAK2; details: catalytic domain, ATP at Km (4 μM); read-out: JAK2 kinase inhibitory activity (EC50)
T1 construct: All four purified enzymes contain only the catalytic domain; His (N); purchased Carna Biosciences, Inc; host or cells: baculovirus expression system
T1 sequence (O60674 849-1124 limits assumed): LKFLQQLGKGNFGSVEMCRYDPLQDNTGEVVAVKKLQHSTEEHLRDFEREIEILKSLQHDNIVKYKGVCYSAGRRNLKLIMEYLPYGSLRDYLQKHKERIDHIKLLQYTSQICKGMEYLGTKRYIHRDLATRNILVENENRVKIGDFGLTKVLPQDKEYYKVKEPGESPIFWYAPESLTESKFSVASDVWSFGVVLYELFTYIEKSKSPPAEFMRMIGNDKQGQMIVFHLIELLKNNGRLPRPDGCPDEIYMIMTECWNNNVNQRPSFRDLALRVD
Procedure, shortened: (§1)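 Catalytic-domain human JAK1 (GST-tagged, aa 850-1154) or His-tagged JAK2, baculovirus-expressed, phosphorylated 1 µM biotinylated TK peptide at Km ATP (JAK1 7 µM, 10 mM MgCl2, 50 nM SEB; JAK2 4 µM, 5 mM MgCl2) in pH 7.0 Hepes, 20-30 min RT. EDTA stop; overnight streptavidin-XL665/cryptate HTRF read.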

TYK2 = biological target: T2, TYK2 (Homo sapiens, UniProt P29597); assay: JAK kinase assay (HTRF, phosphorylation of synthetic peptide), TYK2; details: catalytic domain, ATP at Km (13 μM); read-out: TYK2 kinase inhibitory activity (EC50)
T2 construct: JAK1 (aa 850-1154) and TYK2 (aa 871-1187) are expressed with an N-terminally fused GST-tag; GST (N); purchased Carna Biosciences, Inc; host or cells: baculovirus expression system
T2 sequence (P29597 871-1187): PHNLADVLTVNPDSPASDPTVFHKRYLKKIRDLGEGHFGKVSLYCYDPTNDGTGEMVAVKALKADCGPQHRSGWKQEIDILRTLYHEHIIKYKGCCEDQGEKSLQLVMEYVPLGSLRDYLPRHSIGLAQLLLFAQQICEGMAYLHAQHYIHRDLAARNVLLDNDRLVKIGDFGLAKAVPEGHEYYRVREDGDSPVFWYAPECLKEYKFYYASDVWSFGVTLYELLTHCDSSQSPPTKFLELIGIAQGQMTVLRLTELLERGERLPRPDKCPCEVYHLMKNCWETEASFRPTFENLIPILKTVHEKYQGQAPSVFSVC
Procedure, shortened: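 1 µM biotinylated TK peptide at Km ATP in pH 7.0 Hepes, 20-30 min RT. EDTA stop; overnight streptavidin-XL665/cryptate HTRF read.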

JAK3 = biological target: T3, JAK3 (Homo sapiens, UniProt P52333); assay: JAK kinase assay (HTRF, phosphorylation of synthetic peptide), JAK3; details: catalytic domain, ATP at Km (2 μM); read-out: JAK3 kinase inhibitory activity (EC50)
T3 construct: All four purified enzymes contain only the catalytic domain; His (N); purchased Carna Biosciences, Inc; host or cells: baculovirus expression system
T3 sequence (P52333 822-1111 limits assumed): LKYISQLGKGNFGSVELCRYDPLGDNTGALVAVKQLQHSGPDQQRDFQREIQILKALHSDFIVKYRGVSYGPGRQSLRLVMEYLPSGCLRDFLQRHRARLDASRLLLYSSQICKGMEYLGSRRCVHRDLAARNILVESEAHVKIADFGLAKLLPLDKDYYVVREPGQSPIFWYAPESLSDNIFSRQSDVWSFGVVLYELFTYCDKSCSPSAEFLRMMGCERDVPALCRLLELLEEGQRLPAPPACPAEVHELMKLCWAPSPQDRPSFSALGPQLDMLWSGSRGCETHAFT

JAK1 = biological target: T4, JAK1 (Homo sapiens, UniProt P23458); assay: JAK kinase assay (HTRF, phosphorylation of synthetic peptide), JAK1; details: catalytic domain, ATP at Km (7 μM); read-out: JAK1 kinase inhibitory activity (EC50)
T4 construct: JAK1 (aa 850-1154) and TYK2 (aa 871-1187) are expressed with an N-terminally fused GST-tag; GST (N); purchased Carna Biosciences, Inc; host or cells: baculovirus expression system
T4 sequence (P23458 850-1154): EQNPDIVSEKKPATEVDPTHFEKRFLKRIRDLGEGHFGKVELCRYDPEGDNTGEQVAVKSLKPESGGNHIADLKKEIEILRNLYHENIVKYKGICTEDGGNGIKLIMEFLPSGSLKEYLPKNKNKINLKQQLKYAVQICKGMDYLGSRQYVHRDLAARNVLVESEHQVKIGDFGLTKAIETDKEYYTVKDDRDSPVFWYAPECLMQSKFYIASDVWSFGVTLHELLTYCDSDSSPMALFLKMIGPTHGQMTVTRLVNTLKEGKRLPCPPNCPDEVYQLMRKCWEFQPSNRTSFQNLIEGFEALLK
Procedure, shortened: as §1

Row | Compound | EC50 (JAK2) [nM] | EC50 (TYK2) [nM] | EC50 (JAK3) [nM] | EC50 (JAK1) [nM]
1 | O=C(CN(CCc1ccccc1)S(=O)(=O)N1CCN(c2ncnc3[nH]ccc23)CC12CC2)NCc1ccccc1 [Example 49, N-Benzyl-2-{phenethyl-[7-(7H-pyrrolo[2,3-d]pyrimidin-4-yl)-4,7-diaza-spiro[2.5]octane-4-sulfonyl]-amino}-acetamide] | < 100 | > 500 | 100 to 500 | < 100
2 | CN(C[C@@H]1CC(F)(F)CN1C=O)S(=O)(=O)N1CCN(c2ncnc3[nH]ccc23)CC12CC2 [Example 157, N-[[(2S)-4,4-difluoro-1-formyl-pyrrolidin-2-yl]methyl]-N-methyl-5-(7H-pyrrolo[2,3-d]pyrimidin-4-yl)-5,8-diazaspiro[2.5]octane-8-sulfonamide] | < 100 | < 100 | < 100 | < 100
3 | CN(CC1CCCS(=O)(=O)C1)S(=O)(=O)N1CCN(c2ncnc3[nH]ccc23)CC12CC2 (stereo not shown) [Example 76, N-[(1,1-dioxothian-3-yl)methyl]-N-methyl-5-(7H-pyrrolo[2,3-d]pyrimidin-4-yl)-5,8-diazaspiro[2.5]octane-8-sulfonamide] | < 100 | 100 to 500 | < 100 | < 100
4 | N#CCN(C1COC1)S(=O)(=O)N1CCN(c2ncnc3[nH]ccc23)CC12CC2 [Example 113, N-(cyanomethyl)-N-(oxetan-3-yl)-5-(7H-pyrrolo[2,3-d]pyrimidin-4-yl)-5,8-diazaspiro[2.5]octane-8-sulfonamide] | < 100 | < 100 | < 100 | < 100
5 | O=S(=O)(N(CCc1ccccc1)CCn1cccn1)N1CCN(c2ncnc3[nH]ccc23)CC12CC2 [Example 24, 7-(7H-Pyrrolo[2,3-d]pyrimidin-4-yl)-4,7-diaza-spiro[2.5]octane-4-sulfonic acid phenethyl-(2-pyrazol-1-yl-ethyl)-amide] | < 100 | 100 to 500 | < 100 | < 100
6 | CN(CC1CCCN(C(=O)CCC#N)C1)S(=O)(=O)N1CCN(c2ncnc3[nH]ccc23)CC12CC2 (stereo not shown) [Example 153, N-[[1-(3-cyanopropanoyl)-3-piperidyl]methyl]-N-methyl-5-(7H-pyrrolo[2,3-d]pyrimidin-4-yl)-5,8-diazaspiro[2.5]octane-8-sulfonamide] | < 100 | > 500 | 100 to 500 | < 100
7 | CN(C(=O)C1CCS(=O)(=O)CC1)S(=O)(=O)N1CCN(c2ncnc3[nH]ccc23)CC12CC2 [Example 139, N-methyl-1,1-dioxo-N-[[5-(7H-pyrrolo[2,3-d]pyrimidin-4-yl)-5,8-diazaspiro[2.5]octan-8-yl]sulfonyl]thiane-4-carboxamide] | < 100 | < 100 | < 100 | < 100
8 | COCCN(C1CCC1)S(=O)(=O)N1CCN(c2ncnc3[nH]ccc23)CC12CC2 [Example 103, N-cyclobutyl-N-(2-methoxyethyl)-5-(7H-pyrrolo[2,3-d]pyrimidin-4-yl)-5,8-diazaspiro[2.5]octane-8-sulfonamide] | < 100 | 100 to 500 | 100 to 500 | < 100

Other lines, results leading:

Row | EC50 (JAK2) [nM] | EC50 (TYK2) [nM] | EC50 (JAK3) [nM] | EC50 (JAK1) [nM] | Compound
9 | < 100 | > 500 | 100 to 500 | < 100 | CN(CCCc1cccc(C#N)c1)S(=O)(=O)N1CCN(c2ncnc3[nH]ccc23)CC12CC2 [Example 30, 7-(7H-Pyrrolo[2,3-d]pyrimidin-4-yl)-4,7-diaza-spiro[2.5]octane-4-sulfonic acid [3-(3-cyano-phenyl)-propyl]-methyl-amide]
10 | < 100 | 100 to 500 | < 100 | < 100 | O=S(=O)(N(CCCO)CCc1ccccc1)N1CCN(c2ncnc3[nH]ccc23)CC12CC2 [Example 5, 7-(7H-Pyrrolo[2,3-d]pyrimidin-4-yl)-4,7-diaza-spiro[2.5]octane-4-sulfonic acid (3-hydroxy-propyl)-phenethyl-amide]
11 | < 100 | 100 to 500 | < 100 | < 100 | CN(CC1CCN(S(=O)(=O)CCCC#N)CC1)S(=O)(=O)N1CCN(c2ncnc3[nH]ccc23)CC12CC2 [Example 159, N-[[1-(3-cyanopropylsulfonyl)-4-piperidyl]methyl]-N-methyl-5-(7H-pyrrolo[2,3-d]pyrimidin-4-yl)-5,8-diazaspiro[2.5]octane-8-sulfonamide]
12 | < 100 | 100 to 500 | < 100 | < 100 | CNS(=O)(=O)N1CCN(c2ncnc3[nH]ccc23)CC12CC2 [Int 3]
13 | < 100 | > 500 | 100 to 500 | < 100 | CN(CCOc1ccccc1C#N)S(=O)(=O)N1CCN(c2ncnc3[nH]ccc23)CC12CC2 [Example 70, N-[2-(2-cyanophenoxy)ethyl]-N-methyl-5-(7H-pyrrolo[2,3-d]pyrimidin-4-yl)-5,8-diazaspiro[2.5]octane-8-sulfonamide]
14 | < 100 | < 100 | < 100 | < 100 | CN(C[C@H]1CCC(=O)N1)S(=O)(=O)N1CCN(c2ncnc3[nH]ccc23)CC12CC2 [Example 184, N-methyl-N-[[(2R)-5-oxopyrrolidin-2-yl]methyl]-5-(7H-pyrrolo[2,3-d]pyrimidin-4-yl)-5,8-diazaspiro[2.5]octane-8-sulfonamide]
15 | < 100 | < 100 | < 100 | < 100 | N#CCN(CCc1ccccc1)S(=O)(=O)N1CCN(c2ncnc3[nH]ccc23)CC12CC2 [Example 19, 7-(7H-Pyrrolo[2,3-d]pyrimidin-4-yl)-4,7-diaza-spiro[2.5]octane-4-sulfonic acid cyanomethyl-phenethyl-amide]
16 | < 100 | 100 to 500 | < 100 | < 100 | CN(CC1CCN(S(C)(=O)=O)C1)S(=O)(=O)N1CCN(c2ncnc3[nH]ccc23)CC12CC2 (stereo not shown) [Example 119, N-methyl-N-[(1-methylsulfonylpyrrolidin-3-yl)methyl]-5-(7H-pyrrolo[2,3-d]pyrimidin-4-yl)-5,8-diazaspiro[2.5]octane-8-sulfonamide]
17 | < 100 | 100 to 500 | 100 to 500 | < 100 | CN(CCO)S(=O)(=O)N1CCN(c2ncnc3[nH]ccc23)CC12CC2 [Example 109, N-(2-hydroxyethyl)-N-methyl-5-(7H-pyrrolo[2,3-d]pyrimidin-4-yl)-5,8-diazaspiro[2.5]octane-8-sulfonamide]
18 | < 100 | > 500 | 100 to 500 | < 100 | CN(CCOc1cccc(C#N)c1)S(=O)(=O)N1CCN(c2ncnc3[nH]ccc23)CC12CC2 [Example 71, N-[2-(3-cyanophenoxy)ethyl]-N-methyl-5-(7H-pyrrolo[2,3-d]pyrimidin-4-yl)-5,8-diazaspiro[2.5]octane-8-sulfonamide]
19 | < 100 | > 500 | 100 to 500 | < 100 | CN(CCOc1ccc(C#N)cc1)S(=O)(=O)N1CCN(c2ncnc3[nH]ccc23)CC12CC2 [Example 72, N-[2-(4-cyanophenoxy)ethyl]-N-methyl-5-(7H-pyrrolo[2,3-d]pyrimidin-4-yl)-5,8-diazaspiro[2.5]octane-8-sulfonamide]
